From patent US20260042799A1, “APPLICATION OF PEPTIDE IN PREPARING DRUGS FOR TREATING AND/OR PREVENTING COGNITIVE IMPAIRMENT” (HUAZHONG UNIVERSITY OF SCIENCE AND TECHNOLOGY, priority 2024, published 2026)
Entries after “also recorded” stand apart in the source; their conditions may differ. Where no end group is shown, it is not given here.

Assays:
[1] = biological target: T1, binding between HA-GluA2 and EGFP-Syn2b (Homo sapiens, UniProt P42262); assay: Co-immunoprecipitation/immunoblotting of Syn2b-GluA2 binding in co-transfected HEK293T cells; format: cell-based; details: 10 μM peptide in culture medium for 90 minutes, 48 hours after transfection
T1 construct: HA; expressed in transfected cells; host or cells: HEK293T
Procedure: First, HA-GluA2 and EGFP-Syn2b overexpression plasmids were transfected into HEK293T cells. After 48 hours of transfection, 10 μM concentration of TAT-P6 and TAT-S6 peptides were given in the cell culture medium for 90 minutes, […] and then cells were collected. The overexpressed Syn2b protein is a fusion protein of Syn2b and GFP, using anti-GFP antibody to precipitate cellular proteins, and then using anti-GluA2 antibody to detect the precipitated proteins, the black imprint on the NC membrane indicates the interaction between GluA2 and Syn2b.
Open field experiment: The open field experiment is an experiment in which animals are placed in a closed open metal box area with a length of 80 cm, width of 80 cm, and height of 50 cm to observe mouse activity. This area is divided into squares, and typically the number of squares crossed by mice within a given time is counted to examine the anxiety emotional state and movement ability of the experimental mice. […] Recording is stopped after observing for a certain time, generally about 5 minutes. • 3) Quantify mouse hippocampal related protein content: immunoblotting; • 4) Disrupting the binding of Syn2b and GluA2 in HEK 293T cells: co-immunoprecipitation, immunoblotting. […]

[2] = system: P301S mice; assay: Open field test, P301S mice; format: in vivo; details: C57 and P301S mice, 15 mg/kg subcutaneous, 14 days
Source text: (§1) FIG. 3A to FIG. 3J show the statistical chart of TAT-P6 peptide improving mouse learning memory ability results. FIGS. 3A-B are behavioral experiments for four groups of mice (C57 mice injected with TAT-S6 group, C57 mice injected with TAT-P6 group, P301S mice injected with TAT-S6 group, P301S mice injected with TAT-P6 group) using open field test system.
(§2) Male P301S mice 6-8 months old (purchased from Jackson Laboratory), C57/BL6 mice 6-8 months old (purchased from Beijing Vital River Laboratory Animal Technology Co., Ltd.), SPF grade, weight 20-25 grams, raised in conventional environment.
Open field experiment: The open field experiment is an experiment in which animals are placed in a closed open metal box area with a length of 80 cm, width of 80 cm, and height of 50 cm to observe mouse activity. This area is divided into squares, and typically the number of squares crossed by mice within a given time is counted to examine the anxiety emotional state and movement ability of the experimental mice. […] The experimental area is set up on the computer, the experimental area is divided equally into a “ ? ” shape, with the innermost circle as the central region and the outermost as the peripheral region, then the camera is turned on, the light source is adjusted, and information such as the position, movement route, and distance of the experimental mice is recorded using the computer. […]

[3] = system: P301S mice; assay: Novel object recognition test; format: in vivo; details: 15 mg/kg subcutaneous, 14 days
Source text: as §1, §2
• 1) Mouse spatial memory detection: novel object recognition and water maze; • a) Novel object recognition: Before conducting the novel object recognition test, it is necessary to eliminate unfamiliarity with the mice by petting them daily to prevent stimulation during operation. The first stage is adaptation period. […] Within 5 min (many experiments have proven that after 2 min of familiarization period, animals already show good preference for novel objects, and of course, 3 min of familiarization makes the preference more obvious), the number of times, time, and distance the animal explores each object are measured. […] If the platform is not found within 90 s, the system automatically stops recording, and the latency period is recorded as 90 s. […]

[4] = system: P301S mice; assay: Morris water maze test; format: in vivo; details: detection stage on the 8th day, 15 mg/kg subcutaneous, 14 days
Source text: as §1, §2
• 1) Mouse spatial memory detection: novel object recognition and water maze; • a) Novel object recognition: Before conducting the novel object recognition test, it is necessary to eliminate unfamiliarity with the mice by petting them daily to prevent stimulation during operation. The first stage is adaptation period. Mice move freely in the experimental device (without objects) for 10 minutes. The second stage is familiarization period. […] Within 5 min (many experiments have proven that after 2 min of familiarization period, animals already show good preference for novel objects, and of course, 3 min of familiarization makes the preference more obvious), the number of times, time, and distance the animal explores each object are measured. […] During training, the mouse is gently placed in the water from a ½ radian position of any quadrant with its head facing the pool wall, and its latency period (the time taken by the mouse to find the platform from entering the water) and path are detected as indicators to measure the mouse's learning memory and test performance. […] If the platform is not found within 90 s, the system automatically stops recording, and the latency period is recorded as 90 s. […] The initial training period is 6 days, with daily recording of the time needed for mice to find the platform, recorded as the latency period required for mice to find the platform. […]

[5] = Solubility of the synthesized peptide in water; format: physicochemical; details: white powder
Source text: The sequence of TAT-P6 is shown in SEQ ID NO:3, artificially synthesized by Jiangsu Qiangyao Biotechnology Co., Ltd., and the mass spectrometry analysis is shown in FIG. 1. […] The sequence of TAT-S6 is shown in SEQ ID NO:4, also synthesized by the same company.

T1 sequence (P42262 25-883): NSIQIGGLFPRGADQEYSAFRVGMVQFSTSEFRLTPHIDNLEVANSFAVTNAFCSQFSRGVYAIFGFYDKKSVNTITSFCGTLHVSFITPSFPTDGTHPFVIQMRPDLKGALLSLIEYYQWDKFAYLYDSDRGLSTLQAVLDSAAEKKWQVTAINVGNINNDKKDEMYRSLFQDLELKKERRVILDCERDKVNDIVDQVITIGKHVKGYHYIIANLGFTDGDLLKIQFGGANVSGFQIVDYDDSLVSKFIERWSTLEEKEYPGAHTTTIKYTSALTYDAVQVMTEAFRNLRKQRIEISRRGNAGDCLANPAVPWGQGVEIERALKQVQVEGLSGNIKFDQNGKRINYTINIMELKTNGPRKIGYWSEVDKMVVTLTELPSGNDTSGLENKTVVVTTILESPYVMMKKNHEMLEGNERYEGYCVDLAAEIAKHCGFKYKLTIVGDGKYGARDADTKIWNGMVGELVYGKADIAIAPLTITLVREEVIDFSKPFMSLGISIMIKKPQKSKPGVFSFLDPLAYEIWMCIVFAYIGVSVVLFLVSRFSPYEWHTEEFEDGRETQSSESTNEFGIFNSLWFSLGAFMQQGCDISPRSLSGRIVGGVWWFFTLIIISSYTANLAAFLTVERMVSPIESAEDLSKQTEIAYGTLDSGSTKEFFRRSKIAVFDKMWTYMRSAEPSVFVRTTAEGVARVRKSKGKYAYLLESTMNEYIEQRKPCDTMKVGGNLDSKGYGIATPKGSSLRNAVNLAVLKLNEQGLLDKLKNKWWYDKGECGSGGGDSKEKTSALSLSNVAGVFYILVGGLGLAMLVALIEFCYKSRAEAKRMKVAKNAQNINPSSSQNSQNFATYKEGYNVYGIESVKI

| Sequence | GluA2 detected by anti-GluA2 antibody in anti-GFP (Syn2b) precipitate; interaction between Syn2b and GluA2 [1] | movement ability of mice [2] | time spent at the new object [3] | latency to reach the platform in the water maze [4] | number of times crossing the platform position in the water maze [4] | time spent in the target quadrant in the water maze [4] | solubility in water [5] |
| --- | --- | --- | --- | --- | --- | --- | --- |
| YGRKKRRQRRRCNDILY [TAT-S6] | could be clearly detected | did not change the movement ability | spent less time at the new object | prolonged latency to reach the platform | crossed the platform significantly fewer times | spent significantly less time in the target quadrant | – |
| YGRKKRRQRRRYILDCN [TAT-P6, YGRKKRRQRRRYILDCN] | – | – | – | – | – | – | completely soluble; also recorded: completely dissolved in water |
